{"source": "patent US9676997B2", "about": "“Compositions and methods for stabilizing luminogenic substrates” (Promega Corporation, priority 2014, dated 2017)", "key": {"[1]": {"assay": "Stability of 1.25 mM coelenterazine in 50% ethanol and 50% propylene glycol with or without 225 mM ATT, HPLC and Arrhenius plots", "type": "physicochemical", "details": "225 mM ATT, over time at different temperatures", "procedure": "The stability of coelenterazine in the presence and absence of ATT was measured over time at different temperatures. Specifically, 1.25 mM coelenterazine was present in a solution of 50% ethanol and 50% propylene glycol (i.e., the solution without ATT) or a solution of 50% ethanol and 50% propylene glycol with 225 mM ATT (i.e., the solution with ATT). These two solutions were incubated at −20° C., room temperature (RT), 40° C., or 60° C. and analyzed at 0 days, 1 day, 3 days, 7 days, 15 days, and 30 days.\nFollowing incubation, high performance liquid chromatography (HPLC) was utilized to identify the components of the respective solutions at each time point. Specifically, an Agilent 1100 HPLC instrument was used and equipped with a quaternary pump, thermostatted autosampler and column compartment, and a G1311B diode-array detector. The column used was a Synergi-MAX-RP (Phenomenex, Torrance, Calif.) 100 AÅ 50×4.6 2.5 μm. The run on the HPLC was a gradient run with 0.1% TFA in water and acetonitrile. Absorbance was measured at 262 nanometers (nm). Standards of coelenterazine and its known degradants were run to confirm both the retention time and absorbance trace. 5 μl of each solution was injected and the retention time of coelenterazine was 3.9 minutes at room temperature.\nThe results of the HPLC analysis are shown below in Tables 1 and 2 and FIGS. 1A and 1B, in which the values are reported as relative peak area percentage at 262 nm (i.e., the lamba max of the substrate). […] In each of FIGS. 1A and 1B, diamond is 1.25 mM coelenterazine incubated over time with or without 225 mM ATT, respectively, at −20° C., triangle is 1.25 mM coelenterazine incubated over time with or without 225 mM ATT, respectively, at room temperature (RT), star is 1.25 mM coelenterazine incubated over time with or without 225 mM ATT, respectively, at 40° C., and cross is 1.25 mM coelenterazine incubated over time with or without 225 mM ATT, respectively, at 60° C.\nFrom the HPLC analysis, the half-life of coelenterazine in the presence of ATT at 40° C. and 60° C. was calculated to be 23 days and 5 days, respectively, while the half-life of coelenterazine in the absence of ATT at 40° C. and 60° C. was calculated to be 9.5 days and 2 days, respectively (see Table 3 below).\nAdditionally, Arrhenius plots were generated for coelenterazine in the presence and absence of ATT to calculate the half-life of coelenterazine at various temperatures. The Arrhenius equation is as follows: […]\nIn FIG. 7, the slope was −8636.59, the intercept was 24.1199, and R^2 was 0.9983.\nIn FIG. 8, the slope was −7382.51, the intercept was 21.2598, and R^2 was 0.9570."}, "[2]": {"assay": "Stability of 2.3 mM furimazine at 37° C. in the dark with or without 200 mM thionucleoside, luminescence with NANOLUC enzyme", "type": "physicochemical", "details": "50% propylene glycol:50% ethanol", "procedure": "Specifically, a stock solution of furimazine in 50% propylene glycol:50% ethanol (v/v) was prepared, in which the final concentration of furimazine by absorbance was 4.6 mM. The furimazine stock solution was then diluted 1:1 in 50% propylene glycol:50% ethanol (v/v) to create a control solution without the additives ATT, TAK-0014 and TAK-0002 (i.e., “no additive furimazine” control) and containing 2.3 mM furimazine. 400 mM stock solutions of ATT, TAK-0014 and TAK-0002 were prepared in 50% propylene glycol:50% ethanol (v/v). Each of the ATT, TAK-0014 and TAK-0002 stock solutions was then diluted 1:1 in the 4.6 mM furimazine stock solution to yield solutions containing 200 mM ATT, TAK-0014 or TAK-0002, and 2.3 mM furimazine.\nEach sample was separated into multiple amber tubes and incubated at 37° C. in a dark incubator (i.e., in the absence of light). Aliquots were taken from each sample at various time points and stored at −20° C. in the dark (i.e., in the absence of light) until all time points were collected.\nTo measure luminescence in the aliquots, each aliquot was diluted 1:50 in buffer (NANOGLO buffer, Promega Corporation) to yield 46 μM furimazine. These diluted aliquots were further diluted 1:10 in buffer (NANOGLO buffer, Promega Corporation) to yield 4.6 μM furimazine. 504 of each dilution (i.e., the twice diluted (0.1) aliquots) was mixed with 504, of CO2-independent media+10% fetal bovine serum (FBS) and 0.4 ng/mL luminogenic enzyme (NANOLUC enzyme, Promega Corporation). Luminescence was measured on a luminometer (GLOMAX Multi Plus luminometer, Promega Corporation). Relative light units (RLUs) were normalized for each time point by the RLU value at the 0 days time point. The percent activity from the 0 days time point (i.e., t=0) was plotted against time (days) for each sample as shown in FIG. 15A. In FIG. 15A, B-ATT denoted TAK-0002 and E-ATT denoted TAK-0014.\nError in Table 15 was the standard error from a regression calculation and Fz denoted furimazine, B-ATT denoted TAK-0002, and E-ATT denoted TAK-0014."}}, "data": [{"smiles": "Cc1n[nH]c(=S)[nH]c1=O", "note": "[ATT, 6-methyl-3-thioxo-3,4-dihydro-1,2,4-triazin-5(2H)-one]", "values": [{"measurement": "stabilization of coelenterazine against decomposition", "setting": "[1]", "result": "stabilized coelenterazine against decomposition over time at different temperatures"}, {"measurement": "stabilization of furimazine against decomposition in the absence of light", "setting": "[2]", "result": "stabilized furimazine against decomposition in the absence of light"}]}]}
